# From patent publication US4595698A, “Physiologically active substance, arphamenine and production thereof” (Zaidan Hojin Biseibutsu Kagaku Kenkyu Kai, priority 1982, dated 1986)
# Where two headings read alike, the source gives them in different places.
# Columns and labels:
# [1] = tested on: cell-mediated immunity (D.T.H. to SRBC); assay: D.T.H. to SRBC in tumor-bearing (Sarcoma 180) mice, Test Example 2 (1); assay type: in vivo, CDF1 mice; conditions: for Increased thickness of footpad / T/C (%): 4 days; for T/C (%): control = 100; for cell-mediated immunity depressed by the tumor (in words): tumor-bearing
# Description: The swelling degree on the footpad in mice was evaluated in the same way as in Test Example 1, except that the CDF1 mice employed for the test previously received an intraperitoneal inoculation of 10^6 Sarcoma 180 cells, and that arphamenine A was administered intraperitoneally once daily for 4 consecutive days, including the day of inoculation of SRBC, and two days after the administration, SRBC was given to the treated mice to elicit D.T.H. response.
# [2] = tested on: Ehrlich Solid Tumor; assay: Anti-tumor activity against Ehrlich Solid Tumor, Test Example 3; assay type: in vivo, ddY mice; conditions: for TIR (%), tumor size / TIR (%), tumor weight / Average weight of tumor / Average size of tumor: 7 times on alternate days, day 30; for host-mediated anti-tumor effect (in words): summary statement
# Description: Anti-tumor activity of arphamenine against Ehrlich Solid Tumor.
# 3×10^6 cells of Ehrlich ascites tumor were transplanted subcutaneously into the flank of ddY mice (8-week old, female, 5 mice per group). The day of this transplantation was designated as Day 0. Then, 0.5, 0.05 or 0.005 mg/kg of the test compound dissolved in physiological saline solution was orally administered to the mice a total of 7 times on alternate days until Day 15, beginning on Day 1. On day 30, the size (shorter diameter^2 ×longer diameter/2) of tumor and the weight of tumor were measured. The results in this treated group of mice were compared with those in the control group of mice to calculate tumor inhibition rate (TIR, %) according to the following equation: [formula] where C denotes the size or weight of tumor in the control group, and T denotes the size or weight of tumor in the treated group.
# [3] = tested on: cell-mediated immunity (D.T.H. response to sheep red blood cells); assay: Delayed Type Hypersensitivity (D.T.H.) to SRBC in normal mice, Test Example 1; conditions: for Increased thickness of footpad / T/C (%): single oral dose; for T/C (%): control = 100
# Description: Effect of arphamenine on cell-mediated immunity in normal mice.
# Effect of arphamenines A and B on the cell-mediated immunity was tested according to a known Delayed Type Hypersensitivity (D.T.H.) technique (see P. H. Lagrange, G. B. Mackaness and T. E. Miller: "J. Exp. Med.", 139, 1529~1539 (1974)) using mice immunized with sheep red blood cells (SRBC) as the antigen inoculated to the foot-pad pad of the mice.
# Thus, 10^8 SRBC suspended in 0.05 ml of physiological saline was inoculated by subcutaneous injection to the one side of hind footpad of CDF1 mice (5 mice per group, female, 8-weeks old) to make immunization. At the time of this immunization, an aqueous solution containing 5 mg/kg, 0.5 mg/kg, 0.05 mg/kg or 0.005 mg/kg of arphamenine A or B was administered orally at a single dose to each test mice. 4 Days after the immunization, 10^8 SRBC in 0.05 ml of physiological saline was injected subcutaneously into the other side of the hind footpad of the test mice for elicitation of D.T.H. response. 24 Hours after the eliciting injection, the thickness (in mm) of the hind footpad having received the eliciting injection of SRBC was measured with calipers. At the same time, the thickness of the other side of footpad which had not received the eliciting injection of SRBC was also measured in each mouse.
# The increase of footpad thickness (the swelling degree) was calculated by the following equation: [formula]
# The effect of arphamenine on the DTH response was evaluated by the following equation: [formula]
# Therefore, the assumption was here that the value for the control mice (untreated) was evaluated to be 100%.
# [4] = biological target: T1, aminopeptidase B (Rattus norvegicus, UniProt O09175); assay: Inhibition of aminopeptidase B (arginine-β-naphthylamide degradation, modified Hoppusu method); assay type: biochemical
# T1 construct: an aminopeptidase B which had been purified with DEAE-Cellulose; from tissue
# T1 sequence (O09175 1-650): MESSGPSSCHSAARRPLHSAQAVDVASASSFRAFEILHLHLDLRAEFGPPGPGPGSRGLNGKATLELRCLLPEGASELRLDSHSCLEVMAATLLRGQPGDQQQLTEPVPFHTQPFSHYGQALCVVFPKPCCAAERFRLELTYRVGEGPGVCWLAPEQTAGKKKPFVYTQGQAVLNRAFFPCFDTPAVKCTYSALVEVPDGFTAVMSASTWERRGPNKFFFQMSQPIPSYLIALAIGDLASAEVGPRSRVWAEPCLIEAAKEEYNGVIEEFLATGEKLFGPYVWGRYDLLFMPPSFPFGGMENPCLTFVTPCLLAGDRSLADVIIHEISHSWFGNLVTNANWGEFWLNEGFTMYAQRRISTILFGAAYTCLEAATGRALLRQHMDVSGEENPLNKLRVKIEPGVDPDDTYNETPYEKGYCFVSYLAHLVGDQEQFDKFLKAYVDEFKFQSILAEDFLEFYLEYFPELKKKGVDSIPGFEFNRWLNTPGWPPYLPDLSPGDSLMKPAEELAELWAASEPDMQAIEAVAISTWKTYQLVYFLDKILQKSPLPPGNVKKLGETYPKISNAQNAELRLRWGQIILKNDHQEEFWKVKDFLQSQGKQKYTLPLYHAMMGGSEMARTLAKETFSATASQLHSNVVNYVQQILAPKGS
# Description: Tracing of arphamenine which was made during the course of cultivation of the arphamenine-producing strain, as well as during the course of recovery and purification of arphamenine was conducted by determining the anti-aminopeptidase B potency of arphamenine according to the following methods.
# In detail, 0.5 ml of 0.1 M tris-hydrochloride buffer solution (pH 7.0) and 0.25 ml of a solution containing an arphamenine specimen were added to 0.25 ml of a substrate solution containing 0.002 M arginine-β-naphthylamide. The mixed solution so obtained was heated at 37° C. for 3 minutes. To the heated solution was added 5 μl of a solution of an aminopeptidase B which had been purified with DEAE-Cellulose according to the enzyme-purification technique of Hoppusu et al. The resulting mixture was reacted for 30 minutes at 37° C., and the resultant reaction mixture was admixed with 1 ml of 1.0 M acetate buffer solution (pH 4.2) containing Fast Garnet GBC (o-aminoazotoluene, diazonium salt) at a concentration of 1 mg/ml and a surfactant "Tween" 20 at a concentration of 10% to stop the enzyme reaction. After allowing the resulting mixture to stand at ambient temperature for 15 minutes, absorbance (a) at 525 nm of the reaction solution was measured. On the other hand, adsorbance (b) at 525 nm of a control reaction solution obtained from the blank test using the buffer solution containing no arphamenine was measured. Percent of inhibition to the aminopeptidase B was calculated from the equation [(b-a)/b]×100.
# [5] = tested on: cell-mediated immunity (D.T.H. to picryl chloride); assay: D.T.H. to picryl chloride in mice bearing Ascites Sarcoma 180 tumor, Test Example 2 (2); assay type: in vivo, CDF1 mice; conditions: for Increased thickness of auricles / T/C (%): Table 4, 6 times/day, Day 1 to Day 8; for T/C (%): control = 100
# Description: (2) D.T.H. to picryl chloride
# In mice bearing Ascites Sarcoma 180 tumor, the effect of arphamenine A on D.T.H. to picryl chloride as antigen was investigated. Thus, 10^6 cells of Ascites Sarcoma 180 were transplanted intraperitoneally into CDF1 mice (12-week-old, female, 6 mice per group). The day of this transplantation was designated as Day 0. On Day 1, a shaved area (25 mm×15 mm) of the abdomen of the mice was immunized with 0.6 ml of a solution of 6% picryl chloride in ethanol which had been absorbed to a mass of cut absorbent cotton (20 mm×20 mm×2 mm in size). On Day 8, the thickness of the auricles of both ears was measured with a dial gauge to obtain a baseline value (a). Then, both auricles were elicited for the D.T.H. response with a solution of 1% picryl chloride in olive oil which had been absorbed to a mass of cut absorbent cotton (10 mm×4 mm×1 mm in size). On Day 9, the swelling degree on the elicited auricles was measured with a dial gauge to obtain a value (b). The baseline value (a) was subtracted from the value (b) to determine an increase in the thickness of the auricles (b-a) in the control group of mice (c).
# Separately, 0.5, 0.05 or 0.005 mg/kg of the test compound dissolved in physiological saline was orally administered to another group of CDF1 mise 6 times/day for consecutive days of from Day 1 to Day 8 inclusive, and then the picryl chloride elicitation was carried out with the treated group of mice in the same way as in the control group of mice. The increase in the thickness of both auricles (b'-a') in this treated group of mice (T) was determined in the same way as the control group of mice.
# The rate (T/C, %) of the increased thickness of auricles of the treated group (T) in term of that for the control group (c) was calculated from the following equation [formula]
# Assumed that the value for the control group was evaluated to be 100%, the activity of the test compound to potentiate cell-mediated immunity was estimated.
# [6] = tested on: mice; assay: Acute toxicity tests in mice by intravenous injection; assay type: in vivo
# Description: Acute toxicity tests in mice by intravenous injection have shown that no deaths are caused by arphamenine A in an iv. dose of 250 mg/kg or by arphamenine B in an iv. dose of 150 mg/kg. […] These new compounds are therefore useful as immunopotentiators and anti-tumor immunomodulators or as adjuvants to various chemotherapeutic agents for use in the treatment of carcinomas.
# [7] = Table 3, 5 mg/kg intraperitoneally once daily
# [8] = 0.05 mg/kg orally, **P < 0.05 (Ttest)
# [9] = 0.05 mg/kg orally, *P < 0.1 (Ttest)
# [10] = crude powder after CM-Sephadex C-25, Example 3, read-out: anti-aminopeptidase B potency, IC50 (converted)
# [11] = light yellow powder after Biogel P-2, Examples 8 and 9, read-out: anti-aminopeptidase B potency (IC50) (converted)
# [12] = Table 3, fourth line, 0.005 mg/kg intraperitoneally once daily
# [13] = Table 3, third line, 0.005 mg/kg (so in the source) intraperitoneally once daily
# [14] = Table 3, 0.5 mg/kg intraperitoneally once daily
compound,measurement,setting,value
"CC(C)C[C@H](NC(=O)[C@@H](O)[C@H](N)Cc1ccccc1)C(=O)O [Bestatin, reference compound]",Increased thickness of footpad,[1]; [7],6.0 ± 0.96 × 0.1 mm
same,T/C (%),[1]; [7],133%
same,"TIR (%), tumor size",[2]; 0.05 mg/kg orally,60.6%
same,"TIR (%), tumor weight",[2]; 0.05 mg/kg orally,44.9%
same,Average weight of tumor,[2]; [8],1.47 ± 0.92 g
same,Average size of tumor,[2]; [9],2089 ± 1946 mm^3
same,Increased thickness of footpad,"[3]; Table 1, 0.5 mg/kg",12.5 ± 1.24 × 0.1 mm
same,T/C (%),"[3]; Table 1, 0.5 mg/kg",151%
same,Increased thickness of footpad,"[3]; Table 2, 0.5 mg/kg",13.0 ± 1.13 × 0.1 mm
same,T/C (%),"[3]; Table 2, 0.5 mg/kg",149%
N=C(N)NCCCC(N)C(=O)CC(Cc1ccccc1)C(=O)O (centres unmarked) [Arphamenine A],IC50,"[4]; colorless, pure powder, Examples 4 and 5, read-out: anti-aminopeptidase B potency, IC50 (converted)",16.9 nM
same,IC50,"[4]; colorless, pure product, pH 7.0, 37° C., 30 minutes, read-out: IC50, dose giving 50% inhibition to the aminopeptidase B (converted)",15.6 nM
same,IC50,[4]; [10],20.3 nM
same,IC50,[4]; [11],93.6 nM
same,Increased thickness of footpad,[1]; [12],5.9 ± 0.79 × 0.1 mm
same,T/C (%),[1]; [12],131%
same,Increased thickness of footpad,[1]; [13],6.5 ± 1.29 × 0.1 mm
same,T/C (%),[1]; [13],144%
same,Increased thickness of footpad,[1]; [14],6.7 ± 1.03 × 0.1 mm
same,T/C (%),[1]; [14],149%
same,Increased thickness of footpad,[1]; [7],5.8 ± 1.19 × 0.1 mm
same,T/C (%),[1]; [7],129%
same,cell-mediated immunity depressed by the tumor (in words),[1],modulate the cell-mediated immunity depressed by the tumor
same,activity to enhance cell-mediated immunity (in words),[5]; 0.05 mg/kg,a significant activity to enhance cell-mediated immunity was obtained
same,Increased thickness of auricles,[5]; 0.005 mg/kg orally,6.40 ± 0.63 × 0.1 mm
same,T/C (%),[5]; 0.005 mg/kg orally,143.8%
same,Increased thickness of auricles,"[5]; 0.05 mg/kg orally, *P <0.05",7.40 ± 0.72 × 0.1 mm
same,T/C (%),[5]; 0.05 mg/kg orally,166.3%
same,Increased thickness of auricles,[5]; 0.5 mg/kg orally,6.05 ± 0.97 × 0.1 mm
same,T/C (%),[5]; 0.5 mg/kg orally,136.0%
same,Average size of tumor,[2]; 0.005 mg/kg orally,2378 ± 3138 mm^3
same,Average weight of tumor,[2]; 0.005 mg/kg orally,1.62 ± 1.44 g
same,"TIR (%), tumor size",[2]; 0.005 mg/kg orally,55.2%
same,"TIR (%), tumor weight",[2]; 0.005 mg/kg orally,39.3%
same,"TIR (%), tumor size",[2]; 0.05 mg/kg orally,41.2%
same,"TIR (%), tumor weight",[2]; 0.05 mg/kg orally,37.8%
same,Average weight of tumor,[2]; [8],1.66 ± 1.50 g
same,Average size of tumor,[2]; [9],3120 ± 3584 mm^3
same,Average size of tumor,[2]; 0.5 mg/kg orally,4467 ± 4311 mm^3
same,Average weight of tumor,[2]; 0.5 mg/kg orally,2.62 ± 1.90 g
same,"TIR (%), tumor size",[2]; 0.5 mg/kg orally,15.8%
same,"TIR (%), tumor weight",[2]; 0.5 mg/kg orally,1.9%
same,host-mediated anti-tumor effect in terms of tumor size and tumor weight (in words),[2]; 0.05 and 0.005 mg/kg,produced a host-mediated anti-tumor effect
same,host-mediated anti-tumor effect (in words),[2],exhibit a host-mediated anti-tumor effect
same,"deaths, acute toxicity",[6]; iv. dose of 250 mg/kg,no deaths
same,Increased thickness of footpad,"[3]; Table 1, 0.005 mg/kg",11.9 ± 1.00 × 0.1 mm
same,T/C (%),"[3]; Table 1, 0.005 mg/kg",143%
same,Increased thickness of footpad,"[3]; Table 1, 0.05 mg/kg",13.0 ± 0.97 × 0.1 mm
same,T/C (%),"[3]; Table 1, 0.05 mg/kg",157%
same,Increased thickness of footpad,"[3]; Table 1, 0.5 mg/kg",11.5 ± 1.29 × 0.1 mm
same,T/C (%),"[3]; Table 1, 0.5 mg/kg",139%
same,Increased thickness of footpad,"[3]; Table 1, 5 mg/kg",10.4 ± 0.77 × 0.1 mm
same,T/C (%),"[3]; Table 1, 5 mg/kg",125%
same,cell-mediated immunity in normal animals (in words),[3],potentiate the cell-mediated immunity in normal animals
N=C(N)NCCCC(N)C(=O)CC(Cc1ccc(O)cc1)C(=O)O (centres unmarked) [Arphamenine B],IC50,[4]; [10],6.84 nM
same,IC50,[4]; [11],56.5 nM
same,cell-mediated immunity depressed by the tumor (in words),[1],modulate the cell-mediated immunity depressed by the tumor
same,host-mediated anti-tumor effect (in words),[2],exhibit a host-mediated anti-tumor effect
same,"deaths, acute toxicity",[6]; iv. dose of 150 mg/kg,no deaths
same,Increased thickness of footpad,"[3]; Table 2, 0.005 mg/kg",12.4 ± 1.40 × 0.1 mm
same,T/C (%),"[3]; Table 2, 0.005 mg/kg",143%
same,Increased thickness of footpad,"[3]; Table 2, 0.05 mg/kg",14.0 ± 1.33 × 0.1 mm
same,T/C (%),"[3]; Table 2, 0.05 mg/kg",161%
same,Increased thickness of footpad,"[3]; Table 2, 0.5 mg/kg",14.7 ± 1.74 × 0.1 mm
same,T/C (%),"[3]; Table 2, 0.5 mg/kg",169%
same,Increased thickness of footpad,"[3]; Table 2, 5 mg/kg",13.7 ± 1.77 × 0.1 mm
same,T/C (%),"[3]; Table 2, 5 mg/kg",157%
same,cell-mediated immunity in normal animals (in words),[3],potentiate the cell-mediated immunity in normal animals
